# PubChem BioAssay AID1963958 (Molecular Pharmacology Branch, DTP, NCI, 2024)
# Values joined by “and” are separate entries in the source; they are usually repeats but may differ in a detail not shown here. Equal entries are not always repeated.
# Tested on: MDA-MB-231 multicell spheroids, viability
# Experiment: Anticancer human tumor MDA-MB-231 cell line growth inhibition [PI3K];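 further: spheroids exposed to agents for seven days before reading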;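 on viability, T/C: percent of vehicle control luminescence with DMSO treated spheroids as 100%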
# Conditions: for viability, T/C: stronger effect = lower value
# Summary of the method: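 Complex 3D spheroids (cancer cells + endothelial HUVEC + mesenchymal stem cells); drug pairs of targeted agent x inavolisib/alpelisib/duvelisib/copanlisib; half-log series from ~Cmax, max 10 microM if Cmax unknown; endpoint viability.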
# [1] = curve of first compound, second compound 0.00316 µM
# [2] = curve of first compound, second compound 0.01 µM
# [3] = curve of first compound, second compound 0.0316 µM
# [4] = curve of first compound, second compound 0.1 µM
# [5] = curve of first compound, second compound 0.316 µM
# [6] = curve of first compound, second compound 1 µM
# [7] = second compound 0.00316 µM, first compound 0.0316 µM
# [8] = second compound 0.00316 µM, first compound 0.1 µM
# [9] = second compound 0.00316 µM, first compound 0.316 µM
# [10] = second compound 0.00316 µM, first compound 1 µM
# [11] = second compound 0.00316 µM, first compound 3.16 µM
# [12] = second compound 0.00316 µM, first compound 10 µM
# [13] = second compound 0.01 µM, first compound 0.0316 µM
# [14] = second compound 0.01 µM, first compound 0.1 µM
# [15] = second compound 0.01 µM, first compound 0.316 µM
# [16] = second compound 0.01 µM, first compound 1 µM
# [17] = second compound 0.01 µM, first compound 3.16 µM
# [18] = second compound 0.01 µM, first compound 10 µM
# [19] = second compound 0.0316 µM, first compound 0.0316 µM
# [20] = second compound 0.0316 µM, first compound 0.1 µM
# [21] = second compound 0.0316 µM, first compound 0.316 µM
# [22] = second compound 0.0316 µM, first compound 1 µM
# [23] = second compound 0.0316 µM, first compound 3.16 µM
# [24] = second compound 0.0316 µM, first compound 10 µM
# [25] = second compound 0.1 µM, first compound 0.0316 µM
# [26] = second compound 0.1 µM, first compound 0.1 µM
# [27] = second compound 0.1 µM, first compound 0.316 µM
# [28] = second compound 0.1 µM, first compound 1 µM
# [29] = second compound 0.1 µM, first compound 3.16 µM
# [30] = second compound 0.1 µM, first compound 10 µM
# [31] = second compound 0.316 µM, first compound 0.0316 µM
# [32] = second compound 0.316 µM, first compound 0.1 µM
# [33] = second compound 0.316 µM, first compound 0.316 µM
# [34] = second compound 0.316 µM, first compound 1 µM
# [35] = second compound 0.316 µM, first compound 3.16 µM
# [36] = second compound 0.316 µM, first compound 10 µM
# [37] = second compound 1 µM, first compound 0.0316 µM
# [38] = second compound 1 µM, first compound 0.1 µM
# [39] = second compound 1 µM, first compound 0.316 µM
# [40] = second compound 1 µM, first compound 1 µM
# [41] = second compound 1 µM, first compound 3.16 µM
# [42] = second compound 1 µM, first compound 10 µM
smiles,measurement,setting,value
C#Cc1c(F)ccc2cc(O)cc(-c3ncc4c(N5CC6CCC(C5)N6)nc(OCC56CCCN5CC(F)C6)nc4c3F)c12 (stereo unspecified) + COc1c(OCCCN2CCOCC2)ccc2c3n(c(=NC(=O)c4cnc(N)nc4)nc12)CCN3,IC50,[1],> 10000 nM
same,IC50,[2],8600 nM
same,IC50,[3],2020 nM
same,IC50,[4],< 31.6 nM
same,IC50,[5],< 31.6 nM
same,IC50,[6],< 31.6 nM
same,"viability, T/C",[7],96%
same,"viability, T/C",[8],101%
same,"viability, T/C",[9],81.7%
same,"viability, T/C",[10],88.4%
same,"viability, T/C",[11],78.4%
same,"viability, T/C",[12],52.7%
same,"viability, T/C",[13],77.9%
same,"viability, T/C",[14],77.8%
same,"viability, T/C",[15],72.9%
same,"viability, T/C",[16],74.2%
same,"viability, T/C",[17],66.3%
same,"viability, T/C",[18],47.5%
same,"viability, T/C",[19],60.6%
same,"viability, T/C",[20],56.3%
same,"viability, T/C",[21],60.5%
same,"viability, T/C",[22],54.6%
same,"viability, T/C",[23],45.7%
same,"viability, T/C",[24],35%
same,"viability, T/C",[25],47%
same,"viability, T/C",[26],46.7%
same,"viability, T/C",[27],46.9%
same,"viability, T/C",[28],40.8%
same,"viability, T/C",[29],33%
same,"viability, T/C",[30],21.5%
same,"viability, T/C",[31],32.2%
same,"viability, T/C",[32],31.5%
same,"viability, T/C",[33],26.4%
same,"viability, T/C",[34],23.4%
same,"viability, T/C",[35],18.1%
same,"viability, T/C",[36],13.3%
same,"viability, T/C",[37],24.8%
same,"viability, T/C",[38],23.1%
same,"viability, T/C",[39],20.2%
same,"viability, T/C",[40],16.8%
same,"viability, T/C",[41],15.1%
same,"viability, T/C",[42],10.4%
CC(C)NCC(C(=O)N1CCN(c2ncnc3c2C(C)CC3O)CC1)c1ccc(Cl)cc1 (stereo unspecified) + COc1c(OCCCN2CCOCC2)ccc2c3n(c(=NC(=O)c4cnc(N)nc4)nc12)CCN3,IC50,[1],7260 nM
same,IC50,[2],4830 nM
same,IC50,[3],1840 nM
same,IC50,[4],< 31.6 nM
same,IC50,[5],< 31.6 nM
same,IC50,[6],< 31.6 nM
same,"viability, T/C",[7],96.1%
same,"viability, T/C",[8],93.7%
same,"viability, T/C",[9],83.5%
same,"viability, T/C",[10],74.6%
same,"viability, T/C",[11],59.3%
same,"viability, T/C",[12],46.3%
same,"viability, T/C",[13],81.8%
same,"viability, T/C",[14],81.4%
same,"viability, T/C",[15],69.2%
same,"viability, T/C",[16],62.6%
same,"viability, T/C",[17],54.7%
same,"viability, T/C",[18],43.4%
same,"viability, T/C",[19],61.6%
same,"viability, T/C",[20],59.1%
same,"viability, T/C",[21],55.8%
same,"viability, T/C",[22],56.3%
same,"viability, T/C",[23],45.6%
same,"viability, T/C",[24],33.9%
same,"viability, T/C",[25],48.5%
same,"viability, T/C",[26],48.7%
same,"viability, T/C",[27],45.6%
same,"viability, T/C",[28],39.3%
same,"viability, T/C",[29],37.9%
same,"viability, T/C",[30],28.9%
same,"viability, T/C",[31],32.9%
same,"viability, T/C",[32],34%
same,"viability, T/C",[33],31.2%
same,"viability, T/C",[34],30.1%
same,"viability, T/C",[35],25.5%
same,"viability, T/C",[36],18.7%
same,"viability, T/C",[37],23.8%
same,"viability, T/C",[38],23.7%
same,"viability, T/C",[39],24.9%
same,"viability, T/C",[40],23%
same,"viability, T/C",[41],24.8%
same,"viability, T/C",[42],18.8%
CC1(C)CCC(Nc2ncc(C(F)(F)F)c(-c3c[nH]c4c(P(C)(C)=O)c(C#N)ccc34)n2)CN1 (stereo unspecified),"viability, T/C",compound 0.0316 µM,44.8% [middle of 4 runs]
same,"viability, T/C",compound 0.1 µM,42.5% [middle of 4 runs]
same,"viability, T/C",compound 0.316 µM,44.1% [middle of 4 runs]
same,"viability, T/C",compound 1 µM,54.3% [middle of 4 runs]
same,"viability, T/C",compound 3.16 µM,56.4% [middle of 4 runs]
same,"viability, T/C",compound 10 µM,5.5% [middle of 4 runs]
same,IC50,curve of compound,31.6 nM and 56.2 nM
